Species on record: Rattus norvegicus
Assay: DrugMatrix - Regimen: Daily Repeat
Assay type: toxicity, organism-based, Sprague-Dawley
Design: regimen Daily Repeat, gender Male, age 6-8 weeks
Conditions: in vivo, sc, route subcutaneous, […]; for ABSOLUTE BASOPHIL / ABSOLUTE EOSINOPHIL / ABSOLUTE LYMPHOCYTE / ABSOLUTE MONOCYTE / ABSOLUTE SEGMENTED NEUTROPHIL / BASOPHIL / EOSINOPHIL / ERYTHROCYTE COUNT / HEMATOCRIT / HEMOGLOBIN / LEUKOCYTE COUNT / LYMPHOCYTE / MEAN CORPUSCULAR HEMOGLOBIN / MEAN CORPUSCULAR HEMOGLOBIN CONCENTRATION / MEAN CORPUSCULAR VOLUME / MONOCYTE / NEUTROPHIL / NUCLEATED RED BLOOD CELLS / PLATELET COUNT: tissue Blood; for ALANINE AMINOTRANSFERASE / ALBUMIN / ALKALINE PHOSPHATASE / ASPARTATE AMINOTRANSFERASE / BLOOD UREA NITROGEN / CARBON DIOXIDE / CHLORIDE / CHOLESTEROL / CREATINE PHOSPHOKINASE / CREATININE / GLUCOSE / LACTATE DEHYDROGENASE / LIPASE / PHOSPHORUS / POTASSIUM / SODIUM / TOTAL BILIRUBIN / TOTAL PROTEIN / URIC ACID: tissue Plasma
[1] = 56 mg/kg, 120 h, dose level M1, time 5 day
[2] = 72 h, dose 5.6 mg/Kg, dose level Low, time 3 day
[3] = 120 h, dose 5.6 mg/Kg, dose level Low, time 5 day

## O=C(Nc1ccc(Br)cc1)c1cc(Br)cc(Br)c1O [TRIBROMSALAN]
[1]
  ABSOLUTE BASOPHIL: 0 CELLS/uL
  ABSOLUTE EOSINOPHIL: 183 CELLS/uL
  ABSOLUTE LYMPHOCYTE: 10057 CELLS/uL
  ABSOLUTE MONOCYTE: 145 CELLS/uL
  ABSOLUTE SEGMENTED NEUTROPHIL: 1315 CELLS/uL
  BASOPHIL: 0%
  EOSINOPHIL: 1%
  ERYTHROCYTE COUNT: 5.63 x10E6/uL
  HEMATOCRIT: 34.6%
  HEMOGLOBIN: 12.83 G/DL
  LEUKOCYTE COUNT: 11.7 x10E3/uL
  LYMPHOCYTE: 86.33%
  MEAN CORPUSCULAR HEMOGLOBIN: 22.8 pg
  MEAN CORPUSCULAR HEMOGLOBIN CONCENTRATION: 37.1 G/DL
  MEAN CORPUSCULAR VOLUME: 61.47 fL
  MONOCYTE: 1.33%
  NEUTROPHIL: 11.33%
  NUCLEATED RED BLOOD CELLS: 0 /100WBC
  PLATELET COUNT: 1090 x10E3/uL
  ALANINE AMINOTRANSFERASE: 51 u/L
  ALBUMIN: 3.77 G/DL
  ALKALINE PHOSPHATASE: 376.33 u/L
  ASPARTATE AMINOTRANSFERASE: 90 u/L
  BLOOD UREA NITROGEN: 16 mg/dL
  CARBON DIOXIDE: 24 mmol/L
  CHLORIDE: 99 MEQ/L
  CHOLESTEROL: 81.33 mg/dL
  CREATINE PHOSPHOKINASE: 578.33 u/L
  CREATININE: 0.19 mg/dL
  GLUCOSE: 142 mg/dL
  LACTATE DEHYDROGENASE: 171.33 u/L
  LIPASE: 7.33 u/L
  PHOSPHORUS: 11.13 mg/dL
  POTASSIUM: 6.14 MEQ/L
  SODIUM: 146.5 MEQ/L
  TOTAL BILIRUBIN: 0.23 mg/dL
  TOTAL PROTEIN: 6.23 G/DL
  URIC ACID: 1.13 mg/dL
[2]
  ABSOLUTE BASOPHIL: 0 CELLS/uL
  ABSOLUTE EOSINOPHIL: 0 CELLS/uL
  ABSOLUTE LYMPHOCYTE: 7670 CELLS/uL
  ABSOLUTE MONOCYTE: 0 CELLS/uL
  ABSOLUTE SEGMENTED NEUTROPHIL: 730 CELLS/uL
  BASOPHIL: 0%
  EOSINOPHIL: 0%
  ERYTHROCYTE COUNT: 4.92 x10E6/uL
  HEMATOCRIT: 32.37%
  HEMOGLOBIN: 12.33 G/DL
  LEUKOCYTE COUNT: 8.4 x10E3/uL
  LYMPHOCYTE: 91.67%
  MEAN CORPUSCULAR HEMOGLOBIN: 25.1 pg
  MEAN CORPUSCULAR HEMOGLOBIN CONCENTRATION: 38.13 G/DL
  MEAN CORPUSCULAR VOLUME: 65.77 fL
  MONOCYTE: 0%
  NEUTROPHIL: 8.33%
  NUCLEATED RED BLOOD CELLS: 0 /100WBC
  PLATELET COUNT: 800.67 x10E3/uL
  ALANINE AMINOTRANSFERASE: 47.33 u/L
  ALBUMIN: 4.3 G/DL
  ALKALINE PHOSPHATASE: 403.67 u/L
  ASPARTATE AMINOTRANSFERASE: 74.33 u/L
  BLOOD UREA NITROGEN: 15.33 mg/dL
  CARBON DIOXIDE: 24.33 mmol/L
  CHLORIDE: 101.67 MEQ/L
  CHOLESTEROL: 72.33 mg/dL
  CREATINE PHOSPHOKINASE: 270.67 u/L
  CREATININE: 0.18 mg/dL
  GLUCOSE: 163 mg/dL
  LACTATE DEHYDROGENASE: 143 u/L
  LIPASE: 8.33 u/L
  PHOSPHORUS: 13.13 mg/dL
  POTASSIUM: 6.25 MEQ/L
  SODIUM: 144.7 MEQ/L
  TOTAL BILIRUBIN: 0.3 mg/dL
  TOTAL PROTEIN: 5.97 G/DL
  URIC ACID: 2.13 mg/dL
[3]
  ABSOLUTE BASOPHIL: 0 CELLS/uL
  ABSOLUTE EOSINOPHIL: 126 CELLS/uL
  ABSOLUTE LYMPHOCYTE: 12819 CELLS/uL
  ABSOLUTE MONOCYTE: 78 CELLS/uL
  ABSOLUTE SEGMENTED NEUTROPHIL: 1743.67 CELLS/uL
  BASOPHIL: 0%
  EOSINOPHIL: 0.67%
  ERYTHROCYTE COUNT: 5.88 x10E6/uL
  HEMATOCRIT: 36.87%
  HEMOGLOBIN: 13.53 G/DL
  LEUKOCYTE COUNT: 14.77 x10E3/uL
  LYMPHOCYTE: 87%
  MEAN CORPUSCULAR HEMOGLOBIN: 23.07 pg
  MEAN CORPUSCULAR HEMOGLOBIN CONCENTRATION: 36.77 G/DL
  MEAN CORPUSCULAR VOLUME: 62.77 fL
  MONOCYTE: 0.67%
  NEUTROPHIL: 11.67%
  NUCLEATED RED BLOOD CELLS: 0 /100WBC
  PLATELET COUNT: 1236 x10E3/uL
  ALANINE AMINOTRANSFERASE: 46.33 u/L
  ALBUMIN: 4 G/DL
  ALKALINE PHOSPHATASE: 354.67 u/L
  ASPARTATE AMINOTRANSFERASE: 82.33 u/L
  BLOOD UREA NITROGEN: 17.67 mg/dL
  CARBON DIOXIDE: 27.33 mmol/L
  CHLORIDE: 101.67 MEQ/L
  CHOLESTEROL: 65.33 mg/dL
  CREATINE PHOSPHOKINASE: 261.33 u/L
  CREATININE: 0.2 mg/dL
  GLUCOSE: 152.67 mg/dL
  LACTATE DEHYDROGENASE: 145.67 u/L
  LIPASE: 8 u/L
  PHOSPHORUS: 11.87 mg/dL
  POTASSIUM: 6.3 MEQ/L
  SODIUM: 145.97 MEQ/L
  TOTAL BILIRUBIN: 0.13 mg/dL
  TOTAL PROTEIN: 5.97 G/DL
  URIC ACID: 1.5 mg/dL

— ChEMBL document CHEMBL3885881, “DrugMatrix”
